{"source": "patent US11213499B1", "about": "“Use of 3,3′-diselenodipropionic acid (DSePA) as an anticancer agent” (Secretary, Department of Atomic Energy, priority 2020, dated 2022)", "key": {"[1]": {"system": "A549 (Human non-small cell lung adenocarcinoma)", "assay": "SRB/MTT anti-proliferative assay, A549", "type": "cell-based", "conditions": "48 hours treatment, read-out: GI50 (Concentration of drug causing 50% inhibition of cell growth)", "experimental": "(§1) The anticancer effect of DSePA was evaluated using a panel of twenty-five human cancer cell lines of different tissue origins. Cells were treated with the increasing concentrations (0.1-100 μM) of DSePA for 48 h and viability was monitored by (Sulforhodamine B) SRB assay or MTT assay.\n(§2) Cell culture and DSePA synthesis—DSePA was synthesized and characterized as described in our previous reports. Cell lines were cultured in growth medium (DMEM/RPMI) supplemented with 10% FBS, 100 U/ml penicillin and 100 μg/ml streptomycin at 37° C. in a humidified 5% CO2 environment. The stock solution of DSePA was prepared fresh in cell culture medium and diluted with the same to achieve the desired concentrations.\n(§3) SRB/MTT Assay—To evaluate the anti-proliferative effect of DSePA, Cells (˜5×10^3) suspended in 100 μl of complete culture medium were seeded in each well of 96 well plates. The cells were allowed to attach and grow for 24 h, treated with desired concentrations of DSePA dissolved in culture medium for 48 h and then processed for SRB/MTT assay as described in literature. The percentage (%) cytotoxicity was calculated from the decrease in absorbance as compared to that of control group."}, "[2]": {"system": "Vero (Monkey kidney transformed epithelial cell line (normal))", "assay": "SRB/MTT assay, normal Vero cells", "type": "cell-based", "experimental": "as §1, §2, §3"}}, "note": "Like-named read-outs stand apart in the source and are kept apart here.", "data": [{"compound": "O=C(O)CC[Se][Se]CCC(=O)O", "note": "[DSePA, 3,3′-diselenodipropionic acid]", "values": [{"measurement": "GI50", "setting": "[1]", "result": 10, "unit": "µM"}, {"measurement": "GI50", "setting": "[1]; Homo sapiens, A549, 48 h", "result": "≤ 10", "unit": "µM"}, {"measurement": "GI50", "setting": "[2]; Primates, Vero normal cells, 48 hours treatment, SRB/MTT assay, read-out: GI50 (Concentration of drug causing 50% inhibition of cell growth)", "result": "> 100", "unit": "µM"}, {"measurement": "toxicity in normal cell types", "setting": "[2]; Vero, 0.1-100 μM, 48 h", "result": "did not show toxicity"}]}]}
